Data set [1] is described as follows: Plasma concentration (Cmax) of gabapentin in the rat.

SMILES strings stand for the structures. Where a name gives a salt, the structure may show the parent alone.

As usually defined, the melting point is the temperature of the solid-liquid transition. As to `CCC[C@@H](C)C[C@H](N)CC(=O)O.Cl`, the melting point was 142.5 to 142.7 °C.

With `CCCC[C@@H](C)C[C@H](N)CC(=O)O` (as salt: hydrochloride), the melting point fell in the range of 142.5 to 143.3 °C.

As a reminder, the Cmax is the highest concentration seen after dosing. `NCC1(CC(=O)O)CCCCC1` [gabapentin, 1-(aminomethyl)-cyclohexylacetic acid] yielded a Cmax in data set [1] of 520 to 10500 ng/mL.

The values are drawn from patent US20100081718A1, “CO[…]-2-DELTA LIGANDS” (Pfizer Inc, priority 2003, published 2010).
